Results taken from ChEMBL document CHEMBL5120764, “Isarubrolone C Promotes Autophagic Degradation of Virus Proteins via Activating ATG10S in HepG2 Cells” (J Nat Prod, 2022).
The source made the active and inactive calls.

Assays:
Type in all cases: functional, cell-based
HepG2 [1] = test: Induction of autophagy in human HepG2 cells assessed as […] in LC3B marker expression level upto 10 uM and measured after 6 hrs by western blot analysis; settings: DDE = dose-dependent effect
HepG2 [2] = test: Induction of autophagy in human HepG2 cells transfected with HCV subgenomic replicon assessed as HCV-CORE/LC3B combination at 10 uM incubated for 24 hrs in presence of anti-LAMP2 antibodies by co-immunoprecipitation assay
HepG2 [3] = test: Induction of autophagy in human HepG2 cells transfected with HCV sub-replicon assessed as decrease in HCV-NS5B protein level upto 10 uM and measured after 6 hrs by western blot analysis; settings: DDE = dose-dependent effect
HepG2 [4] = test: Induction of autophagy in human HepG2 cells co-transfected with ATG10 or ATG10S assessed as increase in ATG10/ATG10S protein level upto 10 uM and measured after 6 hrs by western blot analysis; settings: DDE = dose-dependent effect
HepG2 [5] = test: Upregulation of HCV-CORE in human HepG2 cells transfected with HCV sub-replicon and gene knockdown by IL28A morpholinos at 10 uM incubated for 24 hrs by western blot analysis
HepG2 [6] = test: Induction of autophagy in human HepG2 cells transfected with HBV-X and gene knockdown by IL28A morpholinos assessed as LC3B and LAMP2 interaction at 10 uM incubated for 24 hrs in presence of anti-LC3B antibodies by co-immunoprecipitation assay
HepG2 [7] = test: Upregulation of endogenous ATG10S activated co-localisation of HCV-NS5B with LAMP2 in human HepG2 cells co-transfected with HCV sub-replicon and ATG10-misMO by cellular immunofluorescence assay
HepG2 [8] = test: Upregulation of ZIKV-NS5 in human HepG2 cells transfected with ZIKV-NS5 and gene knockdown by IL28A morpholinos at 10 uM incubated for 24 hrs by western blot analysis
HepG2 [9] = test: Induction of autophagy in human HepG2 cells assessed as increase in IL28A protein level upto 10 uM and measured after 6 hrs by western blot analysis; settings: DDE = dose-dependent effect
HepG2 [10] = test: Upregulation of IL28A mRNA expression level in human HepG2 cells transfected with HBV-X upto 10 uM by qRT-PCR analysis; settings: DDE = dose-dependent effect
HepG2 [11] = test: Upregulation of ATG10/ATG10S mRNA level in human HepG2 cells transfected with HCV sub-replicon upto 10 uM by RT-PCR analysis; settings: DDE = dose-dependent effect
HepG2 [12] = test: Upregulation of P62 in human HepG2 cells transfected with HCV sub-replicon and gene knockdown by IL28A morpholinos at 10 uM incubated for 24 hrs by western blot analysis
HepG2 [13] = test: Induction of autophagy in human HepG2 cells transfected with HIV-RT assessed as decrease in HIV-RT protein level upto 10 uM and measured after 6 hrs by western blot analysis; settings: DDE = dose-dependent effect
HepG2 [14] = test: Upregulation of LC3B in human HepG2 cells transfected with HIV-RT and gene knockdown by IL28A morpholinos at 10 uM incubated for 24 hrs by western blot analysis
HepG2 [15] = test: Upregulation of endogenous ATG10S activated co-localisation of ZIKV-NS5 with LC3B in human HepG2 cells co-transfected with ZIKV-NS5 and ATG10-misMO by cellular immunofluorescence assay
HepG2 [16] = test: Induction of autophagy in human HepG2 cells transfected with HIV-RT assessed as increase in HIV-RT-LC3B interaction level at 10 uM incubated for 24 hrs in presence of anti-Flag antibodies by co-immunoprecipitation assay
HepG2 [17] = test: Induction of autophagy in human HepG2 cells transfected with HIV-RT and gene knockdown by IL28A morpholinos assessed as LC3B and LAMP2 interaction at 10 uM incubated for 24 hrs in presence of anti-LC3B antibodies by co-immunoprecipitation assay
HepG2 [18] = test: Upregulation of HBx in human HepG2 cells transfected with HBx and gene knockdown by IL28A morpholinos at 10 uM incubated for 24 hrs by western blot analysis
HepG2 [19] = test: Induction of autophagy in human HepG2 cells transfected with HCV subgenomic replicon assessed as HCV-CORE/LAMP2 combination at 10 uM incubated for 24 hrs in presence of anti-LC3B antibodies by co-immunoprecipitation assay
HepG2 [20] = test: Upregulation of HIV-RT in human HepG2 cells transfected with HIV-RT and gene knockdown by IL28A morpholinos at 10 uM incubated for 24 hrs by western blot analysis
HepG2 [21] = test: Upregulation of endogenous ATG10S activated co-localisation of ZIKV-NS5 with LAMP2 in human HepG2 cells co-transfected with ZIKV-NS5 and ATG10-misMO by cellular immunofluorescence assay
HepG2 [22] = test: Effect on P62 degradation in human HepG2 cells at 10 uM pretreated with proteosome inhibitor MG132 for 12 hrs followed by compound addition and measured after 24 hrs by western blot analysis
HepG2 [23] = test: Induction of autophagy in human HepG2 cells transfected with HIV-RT assessed as increase in HIV-RT-LAMP2 interaction level at 10 uM incubated for 24 hrs in presence of anti-Flag antibodies by co-immunoprecipitation assay
HepG2 [24] = test: Induction of autophagy in human HepG2 cells transfected with HCV subgenomic replicon assessed as HCV-NS5B/P62 combination at 10 uM incubated for 24 hrs in presence of anti-LC3B antibodies by co-immunoprecipitation assay
HepG2 [25] = test: Induction of autophagy in human HepG2 cells transfected with HIV-RT assessed as increase in HIV-RT-P62 interaction level at 10 uM incubated for 24 hrs in presence of anti-Flag antibodies by co-immunoprecipitation assay
HepG2 [26] = test: Induction of autophagy in human HepG2 cells transfected with HBx assessed as decrease in HBx protein level upto 10 uM and measured after 6 hrs by western blot analysis; settings: DDE = dose-dependent effect
HepG2 [27] = test: Downregulation of HCV-CORE in human HepG2 cells transfected with HCV-subreplicon upto 10 uM incubated for 24 hrs by western blot analysis
HepG2 [28] = test: Induction of autophagy in human HepG2 cells transfected with HCV subgenomic replicon assessed as HCV-CORE/ATG10/ATG10S combination at 10 uM incubated for 24 hrs in presence of anti-LAMP2 antibodies by co-immunoprecipitation assay
HepG2 [29] = test: Effect on HCV-NS5B degradation in human HepG2 cells transfected with HCV sub-replicon at 10 uM pretreated with proteosome inhibitor MG132 for 12 hrs followed by compound addition and measured after 24 hrs by western blot analysis
HepG2 [30] = test: Upregulation of P62 in human HepG2 cells transfected with ZIKV-NS5 and gene knockdown by IL28A morpholinos at 10 uM incubated for 24 hrs by western blot analysis
HepG2 [31] = test: Effect on HIV-RT degradation in human HepG2 cells transfected with HIV-RT at 10 uM pretreated with proteosome inhibitor MG132 for 12 hrs followed by compound addition and measured after 24 hrs by western blot analysis
HepG2 [32] = test: Induction of autophagy in human HepG2 cells transfected with HCV subgenomic replicon assessed as HCV-CORE/P62 combination at 10 uM incubated for 24 hrs in presence of anti-LC3B antibodies by co-immunoprecipitation assay

Measured: Activity

CC[C@@H](O)c1nc(C)cc2c1C(=O)c1cc(=O)c3c(c(O)c1-2)O[C@@H]1O[C@H](C)[C@@H](OC)[C@@H](O)[C@]31O
active: HepG2 [1] Dde | HepG2 [2] | HepG2 [3] Dde | HepG2 [4] Dde | HepG2 [5] | HepG2 [6] | HepG2 [7] | HepG2 [8] | HepG2 [9] Dde | HepG2 [10] Dde | HepG2 [11] Dde | HepG2 [12] | HepG2 [13] Dde | HepG2 [14] | HepG2 [15] | HepG2 [16] | HepG2 [17] | HepG2 [18] | HepG2 [19] | HepG2 [20] | HepG2 [21] | HepG2 [22] | HepG2 [23] | HepG2 [24] | HepG2 [25] | HepG2 [26] Dde | HepG2 [27] | HepG2 [28] | HepG2 [29] | HepG2 [30] | HepG2 [31] | HepG2 [32]
